Each block holds one molecule with its values, some of them ahead of it. Active and inactive are the calls of the source. The rule behind the calls is not given here.
How the values were obtained:
2-Hydroxyacid oxidase 2 = target: T1, 2-Hydroxyacid oxidase 2 (Rattus norvegicus, UniProt Q07523); assay: Inhibition of rat His6-tagged Hao2 expressed in Escherichia coli BL21/DE3 using 2-hydroxyoctanoic acid as substrate measured every 10 secs by spectrophotometry
T1 sequence (Q07523 whole entry): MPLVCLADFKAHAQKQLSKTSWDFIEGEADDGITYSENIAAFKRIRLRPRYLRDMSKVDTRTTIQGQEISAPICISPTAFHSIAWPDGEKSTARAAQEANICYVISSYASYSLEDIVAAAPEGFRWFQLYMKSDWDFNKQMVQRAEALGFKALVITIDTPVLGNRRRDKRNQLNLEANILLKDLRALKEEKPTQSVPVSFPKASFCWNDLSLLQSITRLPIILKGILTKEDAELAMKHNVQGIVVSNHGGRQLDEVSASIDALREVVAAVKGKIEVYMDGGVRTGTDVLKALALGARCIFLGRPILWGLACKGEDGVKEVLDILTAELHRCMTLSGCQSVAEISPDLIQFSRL

Rattus norvegicus [1] = assay: (§1) Ex-vivo inhibition of Hao2 in DOCA-salt treated Wistar rat kidney using [3H]-2-hydroxyoctanate as substrate assessed as inhibition of [3H]-H2O production at 30 mg/kg, po bid administered 29 days post DOCA-challenge for 15 days measured 12 to 15 hrs post-last dose by microbeta counting relative to vehicle-treated control; format: functional
Rattus norvegicus [2] = assay: as §1, with “3” for “30”, “1 hr” for “12 to 15 hrs”; format: functional
Rattus norvegicus [3] = assay: as §1, with “1 hr” for “12 to 15 hrs”; format: functional
Rattus norvegicus [4] = assay: as §1, with “3” for “30”; format: functional
HepG2 = assay: Cytotoxicity against human HepG2 cells; format: cell-based
Rattus norvegicus [5] = assay: Antihypertensive activity in DOCA-salt treated Wistar rat assessed as decrease in systolic blood pressure at 3 mg/kg, po bid administered 29 days after DOCA-salt-challenge for 15 days 12 to 15 hrs post-last dose by plethysmography; format: functional
[6] = target: T2, 2-Hydroxyacid oxidase 1 (Rattus norvegicus) (UniProt B0BNF9); assay: Inhibition of rat His6-tagged Hao1 expressed in Escherichia coli BL21/DE3 using glcolic acid as substrate at 10 uM measured every 10 secs by spectrophotometry
T2 sequence (whole entry): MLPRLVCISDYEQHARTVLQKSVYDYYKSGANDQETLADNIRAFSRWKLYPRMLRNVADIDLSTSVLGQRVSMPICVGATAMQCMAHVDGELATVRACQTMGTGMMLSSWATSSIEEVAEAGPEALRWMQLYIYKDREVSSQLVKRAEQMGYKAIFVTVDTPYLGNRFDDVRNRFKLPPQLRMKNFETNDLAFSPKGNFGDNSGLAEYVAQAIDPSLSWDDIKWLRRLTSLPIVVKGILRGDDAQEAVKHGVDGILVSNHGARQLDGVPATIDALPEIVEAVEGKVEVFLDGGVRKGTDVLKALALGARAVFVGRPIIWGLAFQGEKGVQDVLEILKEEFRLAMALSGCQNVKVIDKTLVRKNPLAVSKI

Rattus norvegicus [7] = species on record: Rattus norvegicus; assay: Selectivity ratio of IC50 for rat Hao1 to IC50 for rat Hao2
Rattus norvegicus [8] = assay: Antihypertensive activity in DOCA-salt treated Wistar rat assessed as decrease in systolic blood pressure at 30 mg/kg, po bid administered 29 days after DOCA-salt-challenge for 15 days 12 to 15 hrs post-last dose by plethysmography; format: functional, Artery
[9] = target: Hydroxycarboxylic acid receptor 2 (Homo sapiens) (UniProt Q8TDS4); assay: Agonist activity at human GPR109a at 10 uM; format: functional
Chain of Hydroxycarboxylic acid receptor 2 (Homo sapiens) (Q8TDS4 whole entry): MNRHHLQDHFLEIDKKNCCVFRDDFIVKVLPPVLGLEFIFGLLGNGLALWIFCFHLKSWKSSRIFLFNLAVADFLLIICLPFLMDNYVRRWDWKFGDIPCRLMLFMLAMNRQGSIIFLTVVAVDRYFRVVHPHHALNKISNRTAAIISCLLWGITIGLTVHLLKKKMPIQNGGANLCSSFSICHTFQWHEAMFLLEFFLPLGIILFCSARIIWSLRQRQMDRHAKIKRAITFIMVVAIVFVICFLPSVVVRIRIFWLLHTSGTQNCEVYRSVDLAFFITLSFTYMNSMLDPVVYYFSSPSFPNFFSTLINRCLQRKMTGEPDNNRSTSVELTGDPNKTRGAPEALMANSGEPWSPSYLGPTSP

[10] = target: T3, 2-Hydroxyacid oxidase 2 (Rattus norvegicus) (UniProt Q07523); assay: Inhibition of rat His6-tagged Hao2 expressed in Escherichia coli BL21/DE3 using 2-hydroxyoctanoic acid as substrate at 10 uM measured every 10 secs by spectrophotometry
T3 sequence (whole entry): T1 sequence (Q07523 whole entry)

[11] = Drug metabolism in rat liver microsomes assessed as metabolic rate per 0.125 mg/mL protein; format: ADME, Microsome
Cytochrome P450 3A4 = Cytochrome P450 3A4 (Homo sapiens, UniProt P08684); assay: Inhibition of CYP3A4; format: ADME
Chain of Cytochrome P450 3A4 (P08684 whole entry): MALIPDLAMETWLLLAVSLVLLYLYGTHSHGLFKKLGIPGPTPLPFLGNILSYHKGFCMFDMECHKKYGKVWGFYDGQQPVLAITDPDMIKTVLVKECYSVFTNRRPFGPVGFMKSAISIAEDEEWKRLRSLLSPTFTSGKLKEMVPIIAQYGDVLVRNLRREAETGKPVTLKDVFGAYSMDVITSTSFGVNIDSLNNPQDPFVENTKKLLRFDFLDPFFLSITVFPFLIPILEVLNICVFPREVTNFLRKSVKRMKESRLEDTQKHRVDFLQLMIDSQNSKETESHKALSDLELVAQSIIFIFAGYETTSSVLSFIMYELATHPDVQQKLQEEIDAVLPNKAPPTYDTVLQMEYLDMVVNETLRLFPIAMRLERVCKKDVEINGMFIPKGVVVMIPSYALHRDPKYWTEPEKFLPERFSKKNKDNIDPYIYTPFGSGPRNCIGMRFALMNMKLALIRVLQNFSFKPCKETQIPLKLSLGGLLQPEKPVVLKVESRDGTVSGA

[12] = Oral bioavailability in rat at 10 mg/kg; format: ADME, organism-based; details: in vivo
[13] = target: T4, Nuclear receptor subfamily 1 group I member 2 (Homo sapiens, UniProt O75469); assay: Induction of PXR at 100 uM
T4 sequence (O75469 whole entry): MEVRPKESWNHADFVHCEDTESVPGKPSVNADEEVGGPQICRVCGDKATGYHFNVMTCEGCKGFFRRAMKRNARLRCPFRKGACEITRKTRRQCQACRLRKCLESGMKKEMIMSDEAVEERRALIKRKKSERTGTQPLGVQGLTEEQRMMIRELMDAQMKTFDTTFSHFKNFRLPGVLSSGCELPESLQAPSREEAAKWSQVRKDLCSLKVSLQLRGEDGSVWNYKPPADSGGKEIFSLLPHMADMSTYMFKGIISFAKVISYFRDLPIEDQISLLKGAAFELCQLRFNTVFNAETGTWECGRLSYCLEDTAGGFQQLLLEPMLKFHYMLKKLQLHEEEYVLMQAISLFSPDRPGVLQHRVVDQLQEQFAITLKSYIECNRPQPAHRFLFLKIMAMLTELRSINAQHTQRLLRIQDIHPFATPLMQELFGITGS

Cytochrome P450 2C9 = Cytochrome P450 2C9 (Homo sapiens, UniProt P11712); assay: Inhibition of CYP2C9; format: ADME
Chain of Cytochrome P450 2C9 (P11712 whole entry): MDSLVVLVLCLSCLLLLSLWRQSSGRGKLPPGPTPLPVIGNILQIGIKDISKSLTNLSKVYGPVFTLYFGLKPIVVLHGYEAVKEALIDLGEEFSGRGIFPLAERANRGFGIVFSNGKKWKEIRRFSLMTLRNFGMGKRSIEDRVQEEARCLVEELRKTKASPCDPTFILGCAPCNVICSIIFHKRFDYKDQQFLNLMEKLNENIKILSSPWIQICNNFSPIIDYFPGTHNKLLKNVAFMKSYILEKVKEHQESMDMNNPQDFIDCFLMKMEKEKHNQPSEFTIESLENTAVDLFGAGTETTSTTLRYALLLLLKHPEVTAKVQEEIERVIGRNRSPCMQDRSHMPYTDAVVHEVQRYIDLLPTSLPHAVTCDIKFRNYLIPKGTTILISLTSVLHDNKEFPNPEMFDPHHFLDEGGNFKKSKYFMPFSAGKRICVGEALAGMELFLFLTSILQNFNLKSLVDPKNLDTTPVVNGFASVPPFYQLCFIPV

[14] = Elimination half life in rat at 1 mg/kg, iv; format: ADME, organism-based; parameters: dose 1 mg/kg, route intravenous; details: in vivo, read-out: beta t1/2 (converted)
Cytochrome P450 2D6 = Cytochrome P450 2D6 (Homo sapiens, UniProt P10635); assay: Inhibition of CYP2D6; format: ADME
Chain of Cytochrome P450 2D6 (P10635 whole entry): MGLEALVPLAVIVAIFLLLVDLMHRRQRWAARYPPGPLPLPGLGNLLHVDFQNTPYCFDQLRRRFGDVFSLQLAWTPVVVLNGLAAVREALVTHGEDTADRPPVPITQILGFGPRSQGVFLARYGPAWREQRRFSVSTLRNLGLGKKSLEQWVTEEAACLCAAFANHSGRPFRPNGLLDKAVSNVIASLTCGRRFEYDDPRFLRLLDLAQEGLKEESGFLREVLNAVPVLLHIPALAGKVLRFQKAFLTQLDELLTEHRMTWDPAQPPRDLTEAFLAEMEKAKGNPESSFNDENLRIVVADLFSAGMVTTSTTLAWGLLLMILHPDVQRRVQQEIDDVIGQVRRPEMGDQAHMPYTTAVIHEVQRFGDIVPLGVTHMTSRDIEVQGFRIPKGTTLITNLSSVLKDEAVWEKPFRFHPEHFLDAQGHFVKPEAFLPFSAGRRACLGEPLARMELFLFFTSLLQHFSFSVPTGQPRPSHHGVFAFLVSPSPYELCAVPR

[15] = AUC (0 to 8 hrs) in rat at 1 mg/kg, iv; format: ADME, organism-based; parameters: time < 8 hr, dose 1 mg/kg, route intravenous; details: plasma
[16] = Induction of cytochrome P450 at 10 uM; format: ADME
Kidney [17] = assay: Drug uptake in Wistar rat kidney at 30 mg/kg, po bid administered for 15 days measured 1 hr post-last dose; format: ADME, organism-based; parameters: dose 30 mg/kg, route oral; details: in vivo
Kidney [18] = assay: Drug uptake in Wistar rat kidney at 3 mg/kg, po bid administered for 15 days measured 12 to 15 hrs post-last dose; format: ADME, organism-based; parameters: dose 3 mg/kg, route oral; details: in vivo
Plasma [19] = assay: Plasma concentration in Wistar rat at 3 mg/kg, po bid administered for 15 days measured 12 to 15 hrs post-last dose; format: ADME, organism-based; parameters: dose 3 mg/kg, route oral; details: in vivo
[20] = Plasma concentration in Wistar rat at 3 mg/kg, po bid administered for 15 days measured 1 hr post-last dose; format: ADME, organism-based; parameters: dose 3 mg/kg, route oral
[21] = Plasma protein binding in rat; format: ADME, cell-free; details: read-out: PPB
[22] = Tmax in rat at 10 mg/kg, po; format: ADME, organism-based; parameters: dose 10 mg/kg, route oral; details: in vivo
Rattus norvegicus [23] = assay: Antihypertensive activity in Wistar rat assessed as reduction in DOCA-salt-induced systolic blood pressure elevation at 30 mg/kg, po bid administered on day 14 post DOCA-challenge for 21 days measured 12 to 15 hrs post-last dose by plethysmography relative to vehicle-treated control; format: functional, organism-based; parameters: dose 30 mg/kg; details: Artery
Kidney [24] = assay: Drug uptake in Wistar rat kidney at 30 mg/kg, po bid administered for 15 days measured 12 to 15 hrs post-last dose; format: ADME, organism-based; parameters: dose 30 mg/kg, route oral; details: in vivo
[25] = Elimination half life in rat at 10 mg/kg, po; format: ADME, organism-based; parameters: dose 10 mg/kg, route oral; details: in vivo, read-out: beta t1/2 (converted)
Plasma [26] = assay: Plasma concentration in Wistar rat at 30 mg/kg, po bid administered for 15 days measured 12 to 15 hrs post-last dose; format: ADME, organism-based; parameters: dose 30 mg/kg, route oral; details: in vivo
[27] = Volume of distribution at steady state in rat at 1 mg/kg, iv; format: ADME, organism-based; parameters: dose 1 mg/kg, route intravenous; details: in vivo, read-out: Vdss
Cytochrome P450 1A2 = target: T5, Cytochrome P450 1A2 (Homo sapiens, UniProt P05177); assay: Inhibition of CYP1A2; format: ADME
T5 sequence (P05177 whole entry): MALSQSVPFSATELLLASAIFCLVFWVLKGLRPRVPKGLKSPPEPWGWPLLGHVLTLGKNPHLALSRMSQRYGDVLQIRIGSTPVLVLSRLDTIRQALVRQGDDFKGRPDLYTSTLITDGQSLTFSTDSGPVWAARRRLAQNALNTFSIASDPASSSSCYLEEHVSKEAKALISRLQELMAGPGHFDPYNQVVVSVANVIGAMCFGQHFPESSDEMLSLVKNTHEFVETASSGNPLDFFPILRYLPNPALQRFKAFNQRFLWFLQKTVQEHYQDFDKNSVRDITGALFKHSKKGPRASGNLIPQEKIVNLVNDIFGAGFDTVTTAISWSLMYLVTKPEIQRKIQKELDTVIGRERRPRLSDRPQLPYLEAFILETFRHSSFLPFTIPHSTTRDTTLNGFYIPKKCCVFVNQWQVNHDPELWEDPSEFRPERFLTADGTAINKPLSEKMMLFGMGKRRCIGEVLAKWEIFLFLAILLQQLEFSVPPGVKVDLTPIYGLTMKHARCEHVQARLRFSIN

2-Hydroxyacid oxidase 1 = target: T6, 2-Hydroxyacid oxidase 1 (Rattus norvegicus, UniProt B0BNF9); assay: Inhibition of rat His6-tagged Hao1 expressed in Escherichia coli BL21/DE3 using glcolic acid as substrate measured every 10 secs by spectrophotometry
T6 sequence (B0BNF9 whole entry): T2 sequence (whole entry)

Kidney [28] = assay: Drug uptake in Wistar rat kidney at 3 mg/kg, po bid administered for 15 days measured 1 hr post-last dose; format: ADME, organism-based; parameters: dose 3 mg/kg, route oral; details: in vivo
Cytochrome P450 2C19 = Cytochrome P450 2C19 (Homo sapiens, UniProt P33261); assay: Inhibition of CYP2C19; format: ADME
Chain of Cytochrome P450 2C19 (P33261 whole entry): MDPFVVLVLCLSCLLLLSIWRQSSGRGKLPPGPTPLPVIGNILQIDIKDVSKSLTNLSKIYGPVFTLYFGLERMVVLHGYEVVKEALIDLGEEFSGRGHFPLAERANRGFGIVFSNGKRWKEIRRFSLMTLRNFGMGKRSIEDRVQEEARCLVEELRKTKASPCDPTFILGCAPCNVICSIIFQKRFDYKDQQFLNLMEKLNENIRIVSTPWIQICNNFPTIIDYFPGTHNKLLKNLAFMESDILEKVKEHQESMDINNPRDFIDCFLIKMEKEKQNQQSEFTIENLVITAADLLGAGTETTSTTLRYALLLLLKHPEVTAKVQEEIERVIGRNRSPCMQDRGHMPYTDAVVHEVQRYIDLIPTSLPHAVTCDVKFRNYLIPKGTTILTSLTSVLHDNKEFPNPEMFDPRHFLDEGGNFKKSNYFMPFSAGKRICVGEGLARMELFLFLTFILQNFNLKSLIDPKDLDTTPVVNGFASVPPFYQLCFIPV

[29] = AUC (0 to 8 hrs) in rat at 10 mg/kg, po; format: ADME, organism-based; parameters: time < 8 hr, dose 10 mg/kg, route oral; details: plasma
[30] = Clearance in rat at 1 mg/kg, iv; format: ADME, organism-based; parameters: dose 1 mg/kg, route intravenous; details: in vivo
[31] = Plasma concentration in Wistar rat at 30 mg/kg, po bid administered for 15 days measured 1 hr post-last dose; format: ADME, organism-based; parameters: dose 30 mg/kg, route oral
[32] = Cmax in rat at 10 mg/kg, po; format: ADME, organism-based; parameters: dose 10 mg/kg, route oral; details: in vivo

IC50 (2-Hydroxyacid oxidase 2): 4.27 µM
SMILES: Cc1[nH]nc(C(=O)O)c1CCc1ccccc1

inhibition [6]: inactive
Ratio IC50 (Rattus norvegicus [7]): 150
Activity [9]: inactive
SMILES: Cc1n[nH]c(C(=O)O)c1Cc1cc2ccccc2s1
inhibition in vivo at 30 mg/kg (Rattus norvegicus [1]): 42%
inhibition in vivo at 3 mg/kg (Rattus norvegicus [2]): 75%
inhibition in vivo at 30 mg/kg (Rattus norvegicus [3]): 93%
inhibition in vivo at 3 mg/kg (Rattus norvegicus [4]): 0%
IC50 (HepG2): > 100 µM
Activity (Rattus norvegicus [5]): 27 mmHg
Activity (Rattus norvegicus [8]): 33 mmHg

inhibition [10]: 35%
SMILES: Cc1n[nH]c(C(=O)O)c1-c1ccc(F)cc1

Drug metabolism [11]: 0.003 nmol/min/mg
IC50 (Cytochrome P450 3A4): > 10 µM
bioavailability [12]: 38%
Activity [13]: Not Active
IC50 (Cytochrome P450 2C9): > 10 µM
half-life [14]: 1.7 h
IC50 (Cytochrome P450 2D6): > 10 µM
AUC(0-t) at 8 h [15]: 7.1 µM·h
Activity [16]: Not Active
Drug uptake (Kidney [17]): 24 nmol/g
Drug uptake (Kidney [18]): 3 nmol/g
concentration (Plasma [19]): 200 nM
concentration at 1 h [20]: 2200 nM
fraction unbound [21]: < 0.01
Tmax [22]: 0.25 h
Ratio IC50 (Rattus norvegicus [7]): 150
Drug uptake (Kidney [24]): 7 nmol/g
half-life [25]: 1.5 h
concentration (Plasma [26]): 1900 nM
Vd [27]: 0.6 L/kg
IC50 (Cytochrome P450 1A2): > 10 µM
IC50 (2-Hydroxyacid oxidase 1): 45.7 µM
Drug uptake (Kidney [28]): 10 nmol/g
IC50 (Cytochrome P450 2C19): > 10 µM
AUC(0-t) at 8 h [29]: 27 µM·h
clearance [30]: 8 mL/min/kg
IC50 (2-Hydroxyacid oxidase 2): 0.3 µM
Activity [9]: inactive
concentration at 1 h [31]: 8000 nM
Cmax [32]: 24000 nM
SMILES: Cc1n[nH]c(C(=O)O)c1Cc1cccc(-c2ccc(F)cc2)c1
inhibition in vivo at 30 mg/kg (Rattus norvegicus [1]): 28%
inhibition in vivo at 3 mg/kg (Rattus norvegicus [2]): 29%
inhibition in vivo at 30 mg/kg (Rattus norvegicus [3]): 38%
inhibition in vivo at 3 mg/kg (Rattus norvegicus [4]): 0%
IC50 (HepG2): > 100 µM
Activity (Rattus norvegicus [5]): 32 mmHg
Activity (Rattus norvegicus [8]): 31 mmHg
Activity (Rattus norvegicus [23]): Active
